The target of test [1] is T1, SARS-CoV-2 PLpro (nsp3 1564–1878) (Severe acute respiratory syndrome coronavirus 2, UniProt P0DTD1). The test is described as follows: biochemical. On the set-up: FRET-quenched peptide (Pro3) cleavage by PLpro, 10 min pre-incubation, slope over 20 min, normalised to no-compound control. The conditions noted are these: high concentration screen, read-out: % of control remaining.

Test [2] deals with T1, SARS-CoV-2 PLpro (nsp3 1564–1878). The test is described as follows: biochemical. On the set-up: FRET-quenched peptide (Pro3) cleavage by PLpro, 10 min pre-incubation, slope over 20 min, normalised to no-compound control. The conditions noted are these: low concentration screen, read-out: % of control remaining.

Remaining activity data for 32 compounds are collected here from publication PMC8286840, “Identifying SARS-CoV-2 antiviral compounds by screening for small molecule inhibitors of Nsp3 papain-like protease” (Biochemical Journal, 2021).

Where a name gives a salt, the structure may show the parent alone. Read-outs that look alike come from different tables or passages of the source.

As for `Nc1ncnc2c1ncn2C1CCCC1` [9-cyclopentyladenine], the remaining activity at 3.75 µM in test [1] (Well no.=176) amounted to 91.5%. In addition, the remaining activity at 1.25 µM in test [2] (Well no.=176) is 93.3%.

As to `CCCCC[C@@H](O)/C=C/[C@H]1[C@H](C/C=C\CCCC(=O)O)[C@@H](O)C[C@@H]1O` [9b,11a Prostaglandin F2], the remaining activity at 3.75 µM in test [1] (Well no.=4521) was determined as 103%. For the same compound, the remaining activity at 1.25 µM in test [2] (Well no.=4521) is 101%.

For `CCCCCC/C=C/CCCCCCCCC(=O)O` [10(E)-Heptadecenoic acid], the remaining activity at 3.75 µM in test [1] (Well no.=4312) was 96.7%. In addition, in test [2] (Well no.=4312), the remaining activity at 1.25 µM was 104%.

For `CCCCCCCC/C=C/CCCCCCCCC(=O)O` [10(E)-Nonadecenoic acid], the remaining activity at 3.75 µM in test [1] (Well no.=4546) turned out to be 102%. Also, in test [2] (Well no.=4546), the remaining activity at 1.25 µM was found to be 98.5%.

Regarding `CCCC/C=C/CCCCCCCCC(=O)O` [10(E)-Pentadecenoic acid], in test [1] (Well no.=4300), the remaining activity at 3.75 µM came out at 89.6%. The remaining activity at 1.25 µM in test [2] (Well no.=4300) is 97.7%.

`CCCCC/C=C\C/C=C\CCCCCCCCC(=O)O` [10(Z),13(Z)-Nonadecadienoic acid]: the remaining activity at 3.75 µM in test [1] (Well no.=4396) was determined as 92.5%. Further, in test [2] (Well no.=4396), the remaining activity at 1.25 µM came out at 97.8%.

In the case of `CCCC/C=C\CCCCCCCCC(=O)O` [10(Z)-Pentadecenoic acid], the remaining activity at 3.75 µM in test [1] (Well no.=4542) came to 97.8%. Further, the remaining activity at 1.25 µM in test [2] (Well no.=4542) stood at 89.2%.

Regarding `CCN(CC)C(C)C(=O)N1c2ccccc2Sc2ccccc21` (stereo not drawn) [10-(alpha-Diethylaminopropionyl)-phenothiazine hydrochloride], the remaining activity at 3.75 µM in test [1] (Well no.=531) is 99.7%. In addition, the remaining activity at 1.25 µM in test [2] (Well no.=531) came to 104%.

Regarding `C=CCCCCCCCCC(=O)O` [10-Undecenoic acid], the remaining activity at 3.75 µM in test [1] (Well no.=4254) amounted to 91.9%. The remaining activity at 1.25 µM in test [2] (Well no.=4254) stood at 99%.

For `CCC(Sc1nnc2c(n1)[nH]c1ccccc12)C(=O)N1c2ccccc2Sc2ccccc21` (centres unmarked) [10-[2-(5H-[1,2,4]triazino[5,6-b]indol-3-ylsulfanyl)butanoyl]-10H-phenothiazine], in test [1] (Well no.=5509), the remaining activity at 3.75 µM stood at 108%. Further, in test [2] (Well no.=5509), the remaining activity at 1.25 µM is 110%.

As to `CCN(CC)CCCCN1c2ccccc2Oc2ccc(Cl)cc21` [10-[4'-(N,N-Diethylamino)butyl]-2-chlorophenoxazine hydrochloride], the remaining activity at 3.75 µM in test [1] (Well no.=2574) worked out at 101%. Also, the remaining activity at 1.25 µM in test [2] (Well no.=2574) stood at 97.3%.

For the compound `Cc1ccc(S(=O)(=O)N2c3ccccc3Oc3ccccc32)cc1` [10-[(4-methylphenyl)sulfonyl]-10H-phenoxazine], in test [1] (Well no.=6041), the remaining activity at 3.75 µM came to 96.7%. In test [2] (Well no.=6041), the remaining activity at 1.25 µM was 96.2%.

With `CCCCCC/C=C/CCCCCCCCCC(=O)O` [11(E)-Octadecenoic acid], in test [1] (Well no.=4350), the remaining activity at 3.75 µM came out at 104%. In addition, the remaining activity at 1.25 µM in test [2] (Well no.=4350) was determined as 106%.

For the compound `CCCCCCCC/C=C\CCCCCCCCCC(=O)O` [11(Z)-Eicosenoic acid], the remaining activity at 3.75 µM in test [1] (Well no.=4406) came to 93.7%. Further, in test [2] (Well no.=4406), the remaining activity at 1.25 µM amounted to 96.4%.

Turning to `CCCCCC/C=C\CCCCCCCCCC(=O)O` [11(Z)-Octadecenoic acid], in test [1] (Well no.=4348), the remaining activity at 3.75 µM was 94%. In addition, the remaining activity at 1.25 µM in test [2] (Well no.=4348) amounted to 102%.

For `CCCCC[C@H](O)/C=C/[C@H]1OC(=O)C[C@H](O)[C@@H]1C/C=C\CCCC(=O)O` [11-Dehydro-thromboxane B2], in test [1] (Well no.=4288), the remaining activity at 3.75 µM was 99.7%. Moreover, the remaining activity at 1.25 µM in test [2] (Well no.=4288) came out at 103%.

For `C=CCCCCCCCCCC(=O)O` [11-Dodecenoic acid], the remaining activity at 3.75 µM in test [1] (Well no.=4258) is 96.7%. The remaining activity at 1.25 µM in test [2] (Well no.=4258) is 98.8%.

On to `O=C(O)CCC/C=C\C/C=C\C=C\[C@@H](O)C/C=C\CCCCCO` [12(S),20-DIHETE], for which the remaining activity at 3.75 µM in test [1] (Well no.=4565) turned out to be 101%. For the same compound, the remaining activity at 1.25 µM in test [2] (Well no.=4565) was determined as 99.6%.

For the compound `CCCCC[C@H](O)/C=C/C=C/C/C=C\CCCC(=O)O` [12(S)-HHT], the remaining activity at 3.75 µM in test [1] (Well no.=4234) worked out at 103%. Moreover, the remaining activity at 1.25 µM in test [2] (Well no.=4234) was 101%.

Turning to `CCCCC/C=C\C[C@@H](/C=C/C=C\C/C=C\CCCC(=O)O)OO` [12(S)-HPETE], the remaining activity at 3.75 µM in test [1] (Well no.=4329) stood at 103%. In test [2] (Well no.=4329), the remaining activity at 1.25 µM turned out to be 110%.

With `CCCCCCCC/C=C\CCCCCCCCCCC(=O)O` [12(Z) Heneicosenoic acid], the remaining activity at 3.75 µM in test [1] (Well no.=4452) stood at 102%. For the same compound, the remaining activity at 1.25 µM in test [2] (Well no.=4452) is 94%.

For `CCCCC/C=C\C/C=C\CCCCCCCCCCC(=O)O` [12(Z), 15(Z)-Heneicosadienoic acid], the remaining activity at 3.75 µM in test [1] (Well no.=4454) worked out at 89.9%. Moreover, in test [2] (Well no.=4454), the remaining activity at 1.25 µM turned out to be 95.1%.

In the case of `CC(=O)OCC1=C[C@H]2[C@@H]3C(C)(C)[C@]3(OC(=O)Cc3ccccc3)C[C@@H](C)[C@]2(O)[C@@H]2C=C(C)C(=O)[C@@]2(O)C1` [12-Deoxyphorbol 13-phenylacetate 20-acetate], the remaining activity at 3.75 µM in test [1] (Well no.=3229) is 105%. For the same compound, in test [2] (Well no.=3229), the remaining activity at 1.25 µM amounted to 107%.

With `COCCCCCCCCCCCC(=O)O` [12-Methoxydodecanoic acid], the remaining activity at 3.75 µM was found to be 94.8% in test [1] (Well no.=4262) and 97.3% in test [1] (Well no.=4359). The figures for the remaining activity at 1.25 µM in test [2] (Well no.=4262) and in test [2] (Well no.=4359) were 96% and 101%, respectively.

As to `C=CCCCCCCCCCCC(=O)O` [12-Tridecenoic acid], the remaining activity at 3.75 µM in test [1] (Well no.=4264) is 98%. In test [2] (Well no.=4264), the remaining activity at 1.25 µM stood at 91.3%.

With `CCCCC[C@@H](/C=C/C=C\CCCCCCCC(=O)O)OO` [13(S)-HPODE], the remaining activity at 3.75 µM in test [1] (Well no.=4388) was 101%. Moreover, the remaining activity at 1.25 µM in test [2] (Well no.=4388) is 102%.

Take `CCCCC/C=C\C/C=C\CCCCCCCCCCCC(=O)O` [13(Z),16(Z)-Docosadienoic acid]: in test [1] (Well no.=4462), the remaining activity at 3.75 µM was 101%. For the same compound, in test [2] (Well no.=4462), the remaining activity at 1.25 µM is 100%.

Take `CCCCC[C@H](O)CC[C@H]1[C@H](O)CC(=O)[C@@H]1CCCCCCC(=O)O` [13,14-Dihydro-prostaglandin E1]: in test [1] (Well no.=4278), the remaining activity at 3.75 µM was 101%. Further, the remaining activity at 1.25 µM in test [2] (Well no.=4278) stood at 102%.

Turning to `CC1=C(/C=C/C(C)=C/C=C/C(C)=C\C(=O)O)C(C)(C)CCC1` [13-cis Retinoic acid], the remaining activity at 3.75 µM came out at 98.9% in test [1] (Well no.=3134) and 96% in test [1] (Well no.=4430). In addition, the results for the remaining activity at 1.25 µM in test [2] (Well no.=3134) and in test [2] (Well no.=4430) were 98.4% and 95.1%, respectively.

In the case of `CC1=C(/C=C/C(C)=C/C=C/C(C)=C\C(=O)O)C(C)(C)CCC1` [13-cis-retinoic acid], in test [1] (Well no.=1348), the remaining activity at 3.75 µM was determined as 101%. In test [2] (Well no.=1348), the remaining activity at 1.25 µM amounted to 95.9%.

Consider `CCCCCCCC/C=C/CCCCCCCCCCCCC(=O)O` [14(E)-Tricosenoic acid], for which the remaining activity at 3.75 µM in test [1] (Well no.=4500) is 94.8%. In test [2] (Well no.=4500), the remaining activity at 1.25 µM was 95.4%.

Regarding `CCCCCCCC/C=C\CCCCCCCCCCCCC(=O)O` [14(Z)-Tricosenoic acid], the remaining activity at 3.75 µM in test [1] (Well no.=4498) amounted to 93.7%. Besides, in test [2] (Well no.=4498), the remaining activity at 1.25 µM stood at 99.3%.
